We go through 7 compounds from patent publication US9000025B2, “Autotaxin inhibitors and uses thereof” (Amira Pharmaceuticals, Inc., priority 2010, dated 2015).

Molecules are shown by their SMILES.

In this test the target is T1, autotaxin (ATX) (Homo sapiens, UniProt Q13822).
T1 construct: conditioned medium from the human melanoma cell line, MDA-MB-4355, which endogenously expresses autotaxin; host or cells: MDA-MB-435S human melanoma cells; serum-free conditioned medium, concentrated 20-fold
Put plainly: Native Autotaxin Choline Release Assay. It counts as biochemical. The settings on record: autotaxin in conditioned medium from human melanoma cell line; choline released from LPC; read-out: MDA-MB-435S Assay IC50. Put shortly:
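Native ATX from conditioned serum-free, phenol-red-free DMEM of confluent cells cultured 48 h; LPC as substrate. Released choline detected with choline oxidase/peroxidase/4-aminoantipyrine colour mix in 50 mM Tris pH 8, 10 min at 37 °C, absorbance 555 nm; choline quantified against standard curve, equated to LPA formed.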

For orientation: IC50 means the midpoint of a concentration-inhibition curve. On to `Cc1c(Oc2cccc(CO)c2)c2ccc(Cl)cc2n1Cc1ccccc1` [Compound 2-4, [3-(1-Benzyl-6-chloro-2-methyl-1H-indol-3-yloxy)-phenyl]-methanol], for which the IC50 was > 1000 nM.

As to `CCCn1cc(-n2c(C)c(Sc3cccc(C(=O)O)c3)c3ccc(Cl)cc32)cn1` [Compound 1-57, 3-[6-Chloro-2-methyl-1-(1-propyl-1H-pyrazol-4-yl)-1H-indol-3-ylsulfanyl]-benzoic acid], the IC50 is < 300 nM. As to `Cc1c(Sc2cccc(C(=O)O)c2)c2ccc(Cl)cc2n1-c1ccccn1` [Compound 1-31, 3-(6-Chloro-2-methyl-1-pyridin-2-yl-1H-indol-3-ylsulfanyl)-benzoic acid], the IC50 is 300 to 1000 nM. For the compound `Cc1c(Sc2cccc(CC(=O)O)c2)c2ccc(Cl)cc2n1-c1cccnc1` [Compound 1-35, [3-(6-Chloro-2-methyl-1-pyridin-3-yl-1H-indol-3-ylsulfanyl)-phenyl]-acetic acid], the IC50 was < 300 nM.

In the case of `CCCn1cc(-n2c(C)c(Sc3cc(F)cc(C(=O)O)c3)c3ccc(Cl)c(F)c32)cn1` [Compound 4-5, 3-[6-Chloro-7-fluoro-2-methyl-1-(1-propyl-1H-pyrazol-4-yl)-1H-indol-3-ylsulfanyl]-5-fluoro-benzoic acid], the IC50 was < 300 nM. As to `Cc1c(Sc2cccc(C(=O)O)c2)c2ccc(Cl)cc2n1-c1cccc(Cl)c1` [Compound 1-29, 3-[6-Chloro-1-(3-chloro-phenyl)-2-methyl-1H-indol-3-ylsulfanyl]-benzoic acid], the IC50 was < 300 nM.

Take `Cc1c(Sc2cccc(C(=O)O)c2)c2ccc(Cl)cc2n1-c1cnn(C(C)C)c1` [Compound 1-44, 3-[6-Chloro-1-(1-isopropyl-1H-pyrazol-4-yl)-2-methyl-1H-indol-3-ylsulfanyl]-benzoic acid]: the half-inhibitory concentration (IC50) was < 300 nM.
